Test results reported in patent US20240148779A1, “METHODS FOR THE TREATMENT OF PROTEINOPATHIES” (RENATUS INC., priority 2022, published 2024).

What was measured:
ARPE-19 cells = assay: Cytotoxicity induced by pre-aggregated Aβ42 in ARPE-19 cells (CCK-8); format: cell-based; details: ARPE-19, Aβ42 25 μM, 48 hours, cyclodextrins 1, 2.5 and 5 mg/mL, FIG. 7
Experimental: (§1) Amyloid beta 1-42 (Aβ42) was dissolved in distilled water at a concentration of 1 mM, vortexed for 30 seconds, and then incubated at 37° C. for 7 days to induce pre-aggregation. […] ARPE-19 cells were maintained using DMEM/F12 media containing 10% fetal bovine serum, 1% Penicillin-Streptomycin, 1% HEPES, and 2.5 mM L-Glutamine. […] On the next day, the cells were treated with pre-aggregated Aβ42 at a concentration of 25 μM for 48 hours in the presence of cyclodextrins (1, 2.5, and 5 mg/mL).

SH-SY5Y cells [1] = assay: Cytotoxicity induced by pre-aggregated alpha-synuclein in SH-SY5Y cells; format: cell-based; details: αSyn 1 μM, 24 hours, cyclodextrins 1, 2.5 and 5 mg/mL, FIG. 8
Experimental: as §1
Using the SH-SY5Y cells, the cytotoxicity of aggregated alpha-synuclein (αSyn) was evaluated. The cells were treated with pre-aggregated αSyn (1 μM) for 24 hours in the presence of cyclodextrins (1, 2.5, and 5 mg/mL).

SH-SY5Y cells [2] = assay: Cytotoxicity induced by cyclodextrins in SH-SY5Y cells (CCK-8)
Experimental: HPBCD oligomer was prepared by using hydroxypropyl-beta-cyclodextrin (HPBCD) monomers with a molar substitution value between 0.4 and 0.8. […] SH-SY5Y cells were maintained using DMEM containing 10% fetal bovine serum, 1% Penicillin-Streptomycin, and retinoic acid (50 μM) to induce differentiation into neuron-like cells. Media was changed total three times (1, 3, and 5 days post-seeding) and the cells were seeded for experiments on the next day. The cells were seeded in a 96-well plate at a density of 5×10^4 cells per well. On the next day, the cells were treated with each cyclodextrin at 2.5 mg/mL, 5 mg/mL, 10 mg/mL, and 20 mg/mL for 24 hours. Cellular viability was measured using Cell Counting Kit-8 (CCK-8) and measuring the absorbance at 450 nm.

SH-SY5Y cells [3] = assay: Cytotoxicity induced by pre-aggregated Aβ42 in SH-SY5Y cells (CCK-8); format: cell-based; details: Aβ42 25 μM, 48 hours, cyclodextrins 1, 2.5 and 5 mg/mL, FIG. 7
Experimental: as §1
Then, we investigated the effects of molecular weights of gamma-cyclodextrin oligomers on the cytotoxicity induced by protein aggregates. […] The SH-SY5Y cells were treated with pre-aggregated Aβ42 for 48 hours in the presence of cyclodextrins (5 mg/mL).

TNF-α = assay: Aβ42 aggregate-induced inflammation, secreted TNF-α by ELISA in SH-SY5Y cells; format: cell-based; details: Aβ42 25 μM, 24 hours, cyclodextrins 2.5 mg/mL, FIG. 12
Experimental: The pre-aggregated Aβ42 was treated at a concentration of 25 μM for 24 hours with or without cyclodextrins and enzyme-linked immunosorbent assay (ELISA) was performed to measure inflammatory cytokines secreted by the cells. […] GCD oligomer was prepared by using gamma-cyclodextrin (GCD) monomers.

SH-SY5Y cells [4] = assay: Plasma membrane cholesterol extraction in SH-SY5Y cells; format: cell-based; details: cyclodextrin 20 mg/mL, 37° C., 1 hour, FIG. 11
Experimental: Since cyclodextrin-mediated cytotoxicity is known to be caused by excessive plasma membrane cholesterol extraction and consequential membrane disruption, we investigated cholesterol extraction from the cells. […] The next day, the cells treated with cyclodextrins at a concentration of 20 mg/mL at 37° C. for 1 hour. The supernatant was collected, centrifuged at a rate of 14,000 g for 30 minutes to remove cell debris and microvesicles, and then the cholesterol concentration in the supernatant was quantified using a Cholesterol Quantification Kit (Sigma Aldrich).

| Molecule | effect on cytotoxicity induced by Aβ42 aggregate (ARPE-19 cells) | effect on cytotoxicity induced by αSyn aggregate (SH-SY5Y cells [1]) | cellular viability (SH-SY5Y cells [2]; SH-SY5Y, cyclodextrin 20 mg/mL, 24 hours, FIG. 10) [%] | effect on cytotoxicity induced by Aβ42 aggregate (SH-SY5Y cells [3]) | level of secreted TNF-α (TNF-α) | level of plasma membrane cholesterol extraction (SH-SY5Y cells [4]) | cellular viability (SH-SY5Y cells [2]; human, 24 h, 20 mg/mL) [%] |
| --- | --- | --- | --- | --- | --- | --- | --- |
| hydroxypropyl-gamma-cyclodextrin [HPGCD] | did not show such effect | less effective | 81.38 | did not show such effect | did not show significant effect | no significance compared to PBS | – |
| CC(O)COC[C@H]1O[C@@H]2O[C@H]3[C@H](O)[C@@H](O)[C@@H](O[C@H]4[C@H](O)[C@@H](O)[C@@H](O[C@H]5[C@H](O)[C@@H](O)[C@@H](O[C@H]6[C@H](O)[C@@H](O)[C@@H](O[C@H]7[C@H](O)[C@@H](O)[C@@H](O[C@H]8[C@H](O)[C@@H](O)[C@@H](O[C@H]1[C@H](O)[C@H]2O)O[C@@H]8COCC(C)O)O[C@@H]7COCC(C)O)O[C@@H]6COCC(C)O)O[C@@H]5COCC(C)O)O[C@@H]4COCC(C)O)O[C@@H]3COCC(C)O (stereo partly drawn) [HPBCD, hydroxypropyl-beta-cyclodextrin] | – | – | – | – | did not show significant effect | – | 43.25 |
